Our source for the IC50 and CC50 values is ChEMBL document CHEMBL3399940, “Synthesis and antimalarial evaluation of prodrugs of novel fosmidomycin analogues” (Bioorg Med Chem Lett, 2015).

One data set relates to Plasmodium falciparum. The data set can be described thus: Antimalarial activity against chloroquine and mefloquine-resistant Plasmodium falciparum Dd2 after 48 hrs by SYBR Green I assay. The settings on record: for pIC50: Plasmodium falciparum, Dd2, 48 h, read-out: IC50. Type of data set: functional.
Data set [1] in a line: Cytotoxicity against human HepG2A16 cells after 24 hrs by MTT assay. The settings on record: read-out: LD50. Type of data set: cell-based. Background: Tetrazolium assays rely on reduction of a dye to a coloured formazan, in cell work by metabolically active cells.

Molecules are shown by their SMILES. pIC50: −log10 of the molar value.

With `CC(=O)N(O)CCCP(=O)(O)O`, the pIC50 – broadly, the IC50 on a negative log10 scale, so that one unit is a factor of ten – with Plasmodium falciparum is 6.05. Regarding `CC(=O)N(O)CCCP(=O)(OCOC(=O)C(C)(C)C)OCOC(=O)C(C)(C)C`, in the data set on Plasmodium falciparum, the pIC50 is 6.57. In the case of `CC(C)(C)C(=O)OCOP(=O)(OCOC(=O)C(C)(C)C)C1CCN(O)C(=O)C1` (centres undefined), the CC50 at 24 h in data set [1] was 25600 nM. In addition, in the data set on Plasmodium falciparum, the pIC50 is 7.56. As to `CC(C)(C)C(=O)OCOP(=O)(OCOC(=O)C(C)(C)C)C1CCCN(O)C(=O)C1` (centres undefined), the CC50 at 24 h in data set [1] was 20100 nM. Moreover, the pIC50 in the data set with Plasmodium falciparum is 5.65. As for `CCOP(=O)(OCC)C1CCN(OCc2ccccc2)C(=O)C1` (centres undefined), the CC50 at 24 h in data set [1] was 25600 nM. In addition, the IC50 result in the data set with Plasmodium falciparum is recorded as “Not Active”. On to `O[C@@H](c1cc(C(F)(F)F)nc2c(C(F)(F)F)cccc12)[C@H]1CCCCN1` [(S,R)-MEFLOQUINE], for which, in the data set with Plasmodium falciparum, the pIC50 was 7.04.
